Values quoted from earlier work as cited in patent publication US8247398B2, “Zinc complexes of natural amino acids for treating elevated copper caused toxicities” (SSV Therapeutics, Inc., priority 2007, dated 2012).

O=S(=O)([O-])[O-].[Zn+2] [Zinc sulfate, zinc sulfate]
patient discomfort compared with zinc acetate (Wilson's disease therapy): even more patient discomfort

CC(=O)[O-].CC(=O)[O-].[Zn+2] [zinc acetate]
patients encountering persistent gastric irritation, burning sensation, and nausea (patients receiving zinc acetate therapy): About 10% | time before therapy is tolerable to the patient (taken on an empty stomach or in-between meals): several days or weeks

N[C@@H](Cc1c[nH]cn1)C(=O)O.[Zn] [zinc histidine]
metallothionein production in livers (metallothionein; oral administration, male Wistar rat livers, within 12 hours): 14-39 fold over control group

zinc dipicolinate
metallothionein induction in the epidermis, sebaceous glands and hair follicles (metallothionein; same test as zinc histidine chelate (rats)): substantially raised
